# Experimental data from patent US10543212B2, “Substituted amines for treating cardiac diseases” (Cardurion Pharmaceuticals, LLC, priority 2017, dated 2020).
# Molecular target: T1, Full-length, GST-tagged, human CaMKIIδ (Homo sapiens, UniProt Q13557)
# T1 construct: Full-Length, Glutathione-S-Transferase(GST)-Tagged, Human CaMKIIδ was purchased from Carna Biosciences; purchased Carna Biosciences 02-111
# Test: CaMKIIδ binding assay (TR-FRET with BODIPY-labeled probe ligand)
# Settings: CaMKIIδ binding assay; activity class per Table 2
# In short: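 TR-FRET probe-displacement binding: 0.5 nM GST-CaMKIIδ with 10 μg/mL calmodulin, 1 mM CaCl2, 0.21 nM Tb-anti-GST Ab and 300 nM BODIPY probe in HEPES pH 7.6 buffer. Eight-point 4-fold dilutions, 1 hr at room temperature. IC50 from logistic fit; 100% inhibition defined by 3 μM parent compound.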
# T1 sequence (Q13557 1-478 isoform Q13557-12): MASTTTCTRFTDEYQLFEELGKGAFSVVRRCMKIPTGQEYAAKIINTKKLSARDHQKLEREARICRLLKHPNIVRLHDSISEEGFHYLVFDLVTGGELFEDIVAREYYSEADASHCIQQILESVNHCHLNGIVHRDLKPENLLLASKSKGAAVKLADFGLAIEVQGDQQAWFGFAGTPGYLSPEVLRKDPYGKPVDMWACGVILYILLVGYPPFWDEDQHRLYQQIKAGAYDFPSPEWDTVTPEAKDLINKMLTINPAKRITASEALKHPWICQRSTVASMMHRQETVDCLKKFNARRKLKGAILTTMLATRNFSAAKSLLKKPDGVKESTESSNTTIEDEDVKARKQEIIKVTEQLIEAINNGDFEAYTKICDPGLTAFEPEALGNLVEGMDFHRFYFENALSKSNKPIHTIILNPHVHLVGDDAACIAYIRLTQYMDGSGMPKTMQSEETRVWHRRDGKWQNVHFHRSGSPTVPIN
row,Compound,IC50
1,"CCC1(N2CC3(CC(n4cc(Nc5ncc(-c6ccc(Cl)c(O[C@@H](C)Cn7cnnn7)c6)cn5)c(OCC(F)(F)F)n4)C3)C2)CCOCC1 [Example 955, (S)-5-(3-((1-(1H-tetrazol-1-yl)propan-2-yl)oxy)-4-chlorophenyl)-N-(1-(2-(4-ethyltetrahydro-2H-pyran-4-yl)-2-azaspiro[3.3]heptan-6-yl)-3-(2,2,2-trifluoroethoxy)-1H-pyrazol-4-yl)pyrimidin-2-amine]",< 10 nM
2,"CC(C)c1nn(C2CC3(C2)CN(C2(C)CCOC2)C3)cc1Nc1ncc(-c2ccc(Cl)c(O[C@@H](C)Cn3cnnn3)c2)cn1 (stereo partly drawn) [Example 956, 5-(3-(((S)-1-(1H-tetrazol-1-yl)propan-2-yl)oxy)-4-chlorophenyl)-N-(3-isopropyl-1-(2-(3-methyltetrahydrofuran-3-yl)-2-azaspiro[3.3]heptan-6-yl)-1H-pyrazol-4-yl)pyrimidin-2-amine]",< 10 nM
3,"CCC(=O)c1nn(C2CC3(C2)CN(C2CCOCC2)C3)cc1Nc1ncc(-c2ccc(Cl)c(O[C@@H](C)Cn3cnnn3)c2)cn1 [Example 958, (S)-1-(4-((5-(3-((1-(1H-tetrazol-1-yl)propan-2-yl)oxy)-4-chlorophenyl)pyrimidin-2-yl)amino)-1-(2-(tetrahydro-2H-pyran-4-yl)-2-azaspiro[3.3]heptan-6-yl)-1H-pyrazol-3-yl)propan-1-one]",< 10 nM
4,"C[C@@H](Cn1cnnn1)Oc1cc(-c2cnc(Nc3cn(C4CC5(C4)CN(C4CCOCC4)C5)nc3C(F)(F)C(F)(F)F)nc2)ccc1Cl [Example 959, (S)-5-(3-((1-(1H-tetrazol-1-yl)propan-2-yl)oxy)-4-chlorophenyl)-N-(3-(perfluoroethyl)-1-(2-(tetrahydro-2H-pyran-4-yl)-2-azaspiro[3.3]heptan-6-yl)-1H-pyrazol-4-yl)pyrimidin-2-amine]",< 10 nM
5,"CC(C)c1nn(C2CC3(C2)CN(C2(C)CCOCC2)C3)cc1Nc1ncc(-c2ccc(Cl)c(O[C@@H](C)Cn3cnnn3)c2)cn1 [Example 960, (S)-5-(3-((1-(1H-tetrazol-1-yl)propan-2-yl)oxy)-4-chlorophenyl)-N-(3-isopropyl-1-(2-(4-methyltetrahydro-2H-pyran-4-yl)-2-azaspiro[3.3]heptan-6-yl)-1H-pyrazol-4-yl)pyrimidin-2-amine]",< 10 nM
6,"C[C@@H](Cn1cnnn1)Oc1cc(-c2cnc(Nc3cn(C4CC5(C4)CN(C4COCOC4)C5)nc3OCC(F)(F)F)nc2)ccc1Cl [Example 965, (S)—N-(1-(2-(1,3-dioxan-5-yl)-2-azaspiro[3.3]heptan-6-yl)-3-(2,2,2-trifluoroethoxy)-1H-pyrazol-4-yl)-5-(3-((1-(1H-tetrazol-1-yl)propan-2-yl)oxy)-4-chlorophenyl)pyrimidin-2-amine]",< 10 nM
7,"CC(=O)OC(C)(C)CN1CC2(CC(n3cc(Nc4ncc(-c5ccc(Cl)c(O[C@@H](C)Cn6cnnn6)c5)cn4)c(C(F)(F)F)n3)C2)C1 [Example 974, (S)-1-(6-(4-((5-(3-((1-(1H-tetrazol-1-yl)propan-2-yl)oxy)-4-chlorophenyl)pyrimidin-2-yl)amino)-3-(trifluoromethyl)-1H-pyrazol-1-yl)-2-azaspiro[3.3]heptan-2-yl)-2-methylpropan-2-yl acetate]",< 10 nM
8,"CC(=O)OC(C)(C)CN1CC2(CC(n3cc(Nc4ncc(-c5ccc(Cl)c(O[C@@H](C)Cn6cnnn6)c5)cn4)c(C(C)C)n3)C2)C1 [Example 975, (S)-1-(6-(4-((5-(3-((1-(1H-tetrazol-1-yl)propan-2-yl)oxy)-4-chlorophenyl)pyrimidin-2-yl)amino)-3-isopropyl-1H-pyrazol-1-yl)-2-azaspiro[3.3]heptan-2-yl)-2-methylpropan-2-yl acetate]",< 10 nM
9,"COCCN1CC2(CC(n3cc(Nc4ncc(-c5ccc(Cl)c(O[C@@H](C)Cn6cnnn6)c5)cn4)c(OCC(F)(F)F)n3)C2)C1 [Example 979, (S)-5-(3-((1-(1H-tetrazol-1-yl)propan-2-yl)oxy)-4-chlorophenyl)-N-(1-(2-(2-methoxyethyl)-2-azaspiro[3.3]heptan-6-yl)-3-(2,2,2-trifluoroethoxy)-1H-pyrazol-4-yl)pyrimidin-2-amine]",< 10 nM
10,"CO[C@H]1CC[C@H](N2CC3(CC(n4cc(Nc5ncc(-c6ccc(Cl)c(O[C@@H](C)Cn7cnnn7)c6)cn5)c(C(C)C)n4)C3)C2)CC1 [Example 980, 5-(3-(((S)-1-(1H-tetrazol-1-yl)propan-2-yl)oxy)-4-chlorophenyl)-N-(3-isopropyl-1-(2-((1r,4r)-4-methoxycyclohexyl)-2-azaspiro[3.3]heptan-6-yl)-1H-pyrazol-4-yl)pyrimidin-2-amine]",< 10 nM
11,"C[C@@H](Cn1cnnn1)Oc1cc(-c2cnc(Nc3cn(C4CC5(C4)CN(C4CCCOCC4)C5)nc3OCC(F)(F)F)nc2)ccc1Cl (stereo partly drawn) [Example 981, 5-(3-(((S)-1-(1H-tetrazol-1-yl)propan-2-yl)oxy)-4-chlorophenyl)-N-(1-(2-(oxepan-4-yl)-2-azaspiro[3.3]heptan-6-yl)-3-(2,2,2-trifluoroethoxy)-1H-pyrazol-4-yl)pyrimidin-2-amine]",< 10 nM
12,"C[C@@H](Cn1cnnn1)Oc1cc(-c2cnc(Nc3cn(C4CC5(C4)CN(C4COCCOC4)C5)nc3OCC(F)(F)F)nc2)ccc1Cl [Example 982, (S)—N-(1-(2-(1,4-dioxepan-6-yl)-2-azaspiro[3.3]heptan-6-yl)-3-(2,2,2-trifluoroethoxy)-1H-pyrazol-4-yl)-5-(3-((1-(1H-tetrazol-1-yl)propan-2-yl)oxy)-4-chlorophenyl)pyrimidin-2-amine]",< 10 nM
13,"CC(C)c1nn(C2CC3(C2)CN(C2COCCOC2)C3)cc1Nc1ncc(-c2ccc(Cl)c(O[C@@H](C)Cn3cnnn3)c2)cn1 [Example 983, (S)-N-(1-(2-(1,4-dioxepan-6-yl)-2-azaspiro[3.3]heptan-6-yl)-3-isopropyl-1H-pyrazol-4-yl)-5-(3-((1-(1H-tetrazol-1-yl)propan-2-yl)oxy)-4-chlorophenyl)pyrimidin-2-amine]",< 10 nM
14,"C[C@@H](Cn1cnnn1)Oc1cc(-c2cnc(Nc3cn(C4CC5(C4)CN(Cc4ncccn4)C5)nc3OCC(F)(F)F)nc2)ccc1Cl [Example 984, (S)-5-(3-((1-(1H-tetrazol-1-yl)propan-2-yl)oxy)-4-chlorophenyl)-N-(1-(2-(pyrimidin-2-ylmethyl)-2-azaspiro[3.3]heptan-6-yl)-3-(2,2,2-trifluoroethoxy)-1H-pyrazol-4-yl)pyrimidin-2-amine]",< 10 nM
15,"C[C@@H](Cn1cnnn1)Oc1cc(-c2cnc(Nc3cn(C4CC5(C4)CN(CCC(F)(F)F)C5)nc3OCC(F)(F)F)nc2)ccc1Cl [Example 998, (S)-5-(3-((1-(1H-tetrazol-1-yl)propan-2-yl)oxy)-4-chlorophenyl)-N-(3-(2,2,2-trifluoroethoxy)-1-(2-(3,3,3-trifluoropropyl)-2-azaspiro[3.3]heptan-6-yl)-1H-pyrazol-4-yl)pyrimidin-2-amine]",< 10 nM
16,"Cc1nccc(N2CC3(CC(n4cc(Nc5ncc(-c6ccc(Cl)c(O[C@@H](C)Cn7cnnn7)c6)cn5)c(OCC(F)(F)F)n4)C3)C2)n1 [Example 1000, (S)-5-(3-((1-(1H-tetrazol-1-yl)propan-2-yl)oxy)-4-chlorophenyl)-N-(1-(2-(2-methylpyrimidin-4-yl)-2-azaspiro[3.3]heptan-6-yl)-3-(2,2,2-trifluoroethoxy)-1H-pyrazol-4-yl)pyrimidin-2-amine]",< 10 nM
